IC50 data for 13 molecules are collected here from patent US20070105864A1, “Methods for inhibiting protein kinases” (Schering Corporation, priority 2005, published 2007).

One experiment addresses T1, Cyclin E/CDK2 (Homo sapiens, UniProt P24941).
T1 construct: made in house; host or cells: SF9 cells (baculovirus co-infection)
The experiment can be described thus: CDK2 Assay (Cyclin E/CDK2 in vitro kinase assay). It is filed as biochemical. As to conditions: read-out: CDK2 IC50. The source says: BACULOVIRUS CONSTRUCTIONS: Cyclin E was cloned into pVL1393 (Pharmingen, La Jolla, Calif.) by PCR, with the addition of 5 histidine residues at the amino-terminal end to allow purification on nickel resin. The expressed protein was approximately 45 kDa. CDK2 was cloned into pVL1393 by PCR, with the addition of a haemaglutinin epitope tag at the carboxy-terminal end (YDVPDYAS). The expressed protein was approximately 34 kDa in size.
ENZYME PRODUCTION: Recombinant baculoviruses expressing cyclin E and CDK2 were co-infected into SF9 cells at an equal multiplicity of infection (MOI=5), for 48 hrs. Cells were harvested by centrifugation at 1000 RPM for 10 minutes, then pellets lysed on ice for 30 minutes in five times the pellet volume of lysis buffer containing 50 mM Tris pH 8.0, 1 50 mM NaCl, 1% NP40, 1 mM DTT and protease inhibitors (Roche Diagnostics GmbH, Mannheim, Germany). Lysates were spun down at 15000 RPM for 10 minutes and the supernatant retained. 5 ml of nickel beads (for one liter of SF9 cells) were washed three times in lysis buffer (Qiagen GmbH, Germany). Imidazole was added to the baculovirus supernatant to a final concentration of 20 mM, then incubated with the nickel beads for 45 minutes at 4° C. Proteins were eluted with lysis buffer containing 250 mM imidazole. Eluate was dialyzed overnight in 2 liters of kinase buffer containing 50 mM Tris pH 8.0, 1 mM DTT, 10 mM MgCl2, 100 uM sodium orthovanadate and 20% glycerol. Enzyme was stored in aliquots at −70° C.
IN VITRO KINASE ASSAY: Cyclin E/CDK2 kinase assays were performed in low protein binding 96-well plates (Corning Inc, Corning, N.Y.). Enzyme was diluted to a final concentration of 50 μg/ml in kinase buffer containing 50 mM Tris pH 8.0, 10 mM MgCl2, 1 mM DTT, and 0.1 mM sodium orthovanadate. The substrate used in these reactions was a biotinylated peptide derived from Histone H1 (from Amersham, UK). The substrate was thawed on ice and diluted to 2 μM in kinase buffer. Compounds were diluted in 10% DMSO to desirable concentrations. For each kinase reaction, 20 μl of the 50 µg/ml enzyme solution (1 μg of enzyme) and 20 μl of the 2 μM substrate solution were mixed, then combined with 10 μl of diluted compound in each well for testing. The kinase reaction was started by addition of 50 μl of 2 μM ATP and 0.1 μCi of 33P-ATP (from Amersham, UK). The reaction was allowed to run for 1 hour at room temperature. The reaction was stopped by adding 200 μl of stop buffer containing 0.1% Triton X-100, 1 mM ATP, 5 mM EDTA, and 5 mg/ml streptavidine coated SPA beads (from Amersham, UK) for 15 minutes. The SPA beads were then captured onto a 96-well GF/B filter plate (Packard/Perkin Elmer Life Sciences) using a Filtermate universal harvester (Packard/Perkin Elmer Life Sciences.). Non-specific signals were eliminated by washing the beads twice with 2M NaCl then twice with 2 M NaCl with 1% phosphoric acid. The radioactive signal was then measured using a TopCount 96 well liquid scintillation counter (from Packard/Perkin Elmer Life Sciences).
(§1) IC50 DETERMINATIONS: Dose-response curves were plotted from inhibition data generated, each in duplicate, from 8 point serial dilutions of inhibitory compounds. Concentration of compound was plotted against % kinase activity, calculated by CPM of treated samples divided by CPM of untreated samples. To generate IC50 values, the dose-response curves were then fitted to a standard sigmoidal curve and IC50 values were derived by nonlinear regression analysis.

For a further experiment, the target named is T2, recombinant His-CHK1 (Homo sapiens, UniProt O14757).
T2 construct: His-CHK1, In House Lot P976, MW ˜30 KDa, stored at −80 °C; fused on or other part: His tag
T2 sequence (O14757 1-265 limits assumed): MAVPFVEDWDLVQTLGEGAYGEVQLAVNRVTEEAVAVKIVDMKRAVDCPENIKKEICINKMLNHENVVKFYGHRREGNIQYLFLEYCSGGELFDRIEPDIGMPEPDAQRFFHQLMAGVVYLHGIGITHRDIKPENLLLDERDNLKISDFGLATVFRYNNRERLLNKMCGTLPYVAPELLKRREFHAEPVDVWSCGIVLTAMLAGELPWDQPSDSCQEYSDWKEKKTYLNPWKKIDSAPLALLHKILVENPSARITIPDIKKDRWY
The experiment can be described thus: CHK1 SPA Assay. Format: biochemical. The settings on record: read-out: CHK-1 IC50. Here is the method: An in vitro assay was developed that utilizes recombinant His-CHK1 expressed in the baculovirus expression system as an enzyme source and a biotinylated peptide based on CDC25C as substrate (biotin-[…]).
1) CDC25C Ser 216 C-term Biotinylated peptide substrate (25 mg), stored at −20 °C, Custom Synthesis by Research Genetics: biotin-[…] 2595.4 MW
2) His-CHK1 In House lot P976, 235 ug/mL, stored at −80 °C.
1) Kinase Buffer: 50 mM Tris pH 8.0; 10 mM MgCl2; 1 mM DTT
2) His-CHK1, In House Lot P976, MW ˜30 KDa, stored at −80 °C. […] For 1 plate (100 r×n): dilute 8 μL of 235 μg/mL (7.83 uM) stock in 2 mL Kinase Buffer. This makes a 31 nM mixture. Add 20 μL/well. This makes a final reaction concentration of 6 nM.
3) CDC25C Biotinylated peptide.
Dilute CDC25C to 1 mg/mL (385 uM) stock and store at −20° C. For 1 plate (100 r×n): dilute 10 1L of 1 mg/mL peptide stock in 2 ml Kinase Buffer. This gives a 1.925 μM mix. Add 20 1L/r×n. This makes a final reaction concentration of 385 nM.
For 1 plate (100 r×n): dilute 10 μL of 1 mM ATP (cold) stock and 2 uL fresh P33-ATP (20 μCi) in 5 ml Kinase Buffer. This gives a 2 μM ATP (cold) solution; add 50 μl/well to start the reaction. Final volume is 100 μl/r×n so the final reaction concentrations will be 1 μM ATP (cold) and 0.2 uCi/r×n.
For 1 plate add: To 10 mL Wash Buffer 2 (2M NaCl 1% H3PO4): 1 mL SPA bead slurry (50 mg); Add 100 μL/well
6) Wash buffer 1: 2 M NaCl
7) Wash buffer 2: 2 M NaCl, 1% H3PO4
Dispense 10 μl/r×n to appropriate wells. Add 10 μL 10% DMSO to positive (CHK1+CDC25C+ATP) and negative (CHK1+ATP only) control wells. 2) Thaw enzyme on ice—dilute enzyme to proper concentration in kinase buffer (see Reaction Mixtures) and dispense 20 μl to each well. 3) Thaw the Biotinylated substrate on ice and dilute in kinase buffer (see Reaction Mixtures). Add 20 μL/well except to negative control wells. Instead, add 20 uL Kinase Buffer to these wells. 4) Dilute ATP (cold) and P33-ATP in kinase buffer (see Reaction Mixtures). Add 50 μL/well to start the reaction. 5) Allow the reaction to run for 2 hours at room temperature. 6) Stop reaction by adding 100 uL of the SPA beads/stop solution (see Reaction Mixtures) and leave to incubate for 15 minutes before harvest 7) Place a blank Packard GF/B filter plate into the vacuum filter device (Packard plate harvester) and aspirate […] water through to wet the system. 8) Take out the blank and put in the Packard GF/B filter plate. 9) Aspirate the reaction through the filter plate. 10) Wash: 200 ml each wash; 1× with 2M NaCl; 1× with 2M NaCl/1% H3PO4 11) Allow filter plate to dry 15 min. 12) Put TopSeal-A adhesive on top of filter plate. 13) Run filter plate in Top Count
Settings: • Data mode: CPM • Radio nuclide: Manual SPA:P33 • Scintillator: Liq/plast • Energy Range: Low
as §1

What is called IC50 is the concentration that inhibits the measured activity by half. As to `Cc1cc(Nc2nc(C3=CCCNC3)cn3c(-c4cnn(C)c4)cnc23)sc1S(=O)(=O)NCC1CC1`, the IC50 at Cyclin E/CDK2 was 2140 nM; at recombinant His-CHK1 it was 8 nM.

With `Cc1cc(Nc2nc(C3=CCCNC3)cn3c(-c4cnn(C)c4)cnc23)sc1S(=O)(=O)C(C)C`, the half-inhibitory concentration (IC50) at Cyclin E/CDK2 came out at 4790 nM; on recombinant His-CHK1 it was 5 nM.

On to `Cc1cc(Nc2nc(C3=CCCNC3)cn3c(-c4cnn(C)c4)cnc23)sc1S(C)(=O)=O`, for which the half-maximal inhibitory concentration (IC50) stood at 11600 nM at Cyclin E/CDK2 and 8 nM at recombinant His-CHK1.

Regarding `Cc1cc(Nc2nc(C3=CCCNC3)cn3c(-c4cnn(C)c4)cnc23)sc1S(=O)(=O)NCCO`, the IC50 was determined as 4680 nM at Cyclin E/CDK2 and 6 nM at recombinant His-CHK1.

On to `Cc1cc(Nc2nc(C3=CCCNC3)cn3c(-c4cnn(C)c4)cnc23)sc1-c1cnn(C)c1`, for which the IC50 at Cyclin E/CDK2 came out at 4590 nM; at recombinant His-CHK1, 19 nM.

In the case of `Cc1cc(Nc2nc(CC3CCNC3)cn3c(-c4cnn(C)c4)cnc23)sn1` (centres unmarked), the IC50 turned out to be 607 nM on Cyclin E/CDK2 and 7 nM on recombinant His-CHK1.

As for `Cc1cc(Nc2nc(CC3CCNC3)cn3c(-c4cnn(C)c4)cnc23)sc1S(=O)(=O)N(C)C` (centres unmarked), the IC50 at Cyclin E/CDK2 was 983 nM; at recombinant His-CHK1, 8 nM.

On to `Cc1ncc(Nc2nc(C3=CCCNC3)cn3c(-c4cnn(C)c4)cnc23)s1`, for which the IC50 was 4630 nM on Cyclin E/CDK2 and 8 nM on recombinant His-CHK1.

For the molecule `Cc1cc(Nc2nc(C3=CCCNC3)cn3c(-c4cnn(C)c4)cnc23)sc1S(=O)(=O)N(C)C1CC1`, the IC50 at Cyclin E/CDK2 turned out to be 13100 nM; at recombinant His-CHK1, 18 nM.

Regarding `Cn1cc(-c2cnc3c(Nc4ccc(-n5ccnc5)cc4)nc(C4=CCCNC4)cn23)cn1` [drawing 1440], the IC50 stood at 12500 nM at Cyclin E/CDK2 and 97 nM at recombinant His-CHK1.

In the case of `Cn1cc(-c2cnc3c(Nc4ccc(-n5ccnc5)cc4)nc(C4=CCCNC4)cn23)cn1` [drawing 1445], the half-maximal inhibitory concentration (IC50) at Cyclin E/CDK2 was determined as 12500 nM; at recombinant His-CHK1, 97 nM.

In the case of `Cc1cc(Nc2nc(C3=CCCNC3)cn3c(-c4cnn(C)c4)cnc23)sc1S(=O)(=O)NC1CC1` [drawing 1469], the IC50 on Cyclin E/CDK2 came out at 1580 nM; at recombinant His-CHK1, 3 nM.

Turning to `Cc1cc(Nc2nc(C3=CCCNC3)cn3c(-c4cnn(C)c4)cnc23)sc1S(=O)(=O)NC1CC1` [drawing 1473], the IC50 on Cyclin E/CDK2 was found to be 3210 nM; on recombinant His-CHK1 it was 7 nM.
